{"source": "patent US10478440B2", "about": "“Pharmaceutical compositions for inhibiting angiogenesis comprising plant-derived natural compound” (INDUSTRY-ACADEMIC COOPERATION FOUNDATION, YONSEI UNIVERSITY, priority 2011, dated 2019)", "key": {"[1]": {"tested_on": "HUVECs", "assay": "MTT cell proliferation assay, HUVECs", "type": "cell-based, human", "protocol": "(§1) Human umbilical vascular endothelial cells (HUVECs) were grown for 7-11 passages in EGM-2 medium supplemented with 10% FBS. HepG2 (human liver carcinoma) cells were grown in RPMI 1640 containing 10% FBS and 1% antibiotics. All cell lines were maintained at 37° C. in a humidified 5% CO2 incubator. Cell proliferation was measured using a 3-(4,5-dimethylthiazol-2-yl)-2,5-diphenyltetrazolium bromide (MTT) colorimetric assay, and cell viability was assessed using Trypan blue staining."}, "[2]": {"tested_on": "HUVECs", "assay": "Capillary tube formation assay (VEGF-induced)", "type": "cell-based, human", "details": "VEGF 30 ng/mL, serum-starved HUVECs", "protocol": "(§2) Matrigel (10 mg/mL) was used to coat a 48-well plate and allowed to polymerize for 1 h at 37° C. HUVECs (6×10^4 cells) were seeded on the surface of the Matrigel, and then test compounds were added for 4-16 h at 37° C. in the presence or absence of VEGF (30 ng/mL). Morphological changes in the cells and formation of tubular structures were observed under a microscope (IX71, Olympus) and photographed at 100× magnification (DP70, Olympus)."}, "[3]": {"tested_on": "HUVECs", "assay": "Nicotine-induced tube formation of HUVECs", "type": "cell-based, human", "details": "nicotine 10 nM", "protocol": "as §2, with “Serum-starved HUVECs were stimulated by nicotine (10 nM) in the presence or absence of voacangine. […] The basal level capillary tube formation (a) and invasiveness (b) of HUVECs that remained in serum-free media were normalized to 100%. Matrigel (10” for “Matrigel (10”"}, "[4]": {"tested_on": "capsaicin contraction", "details": "literature [9]; cited from earlier work"}, "[5]": {"tested_on": "HIF-1α", "assay": "Western blot of HIF-1α under hypoxic conditions", "type": "cell-based, human", "details": "HepG2 cells during hypoxia", "protocol": "The cell lysates were separated by 10% SDS-PAGE, followed by transfer to PVDF membranes (Millipore, Bedford, Mass.) using standard electroblotting procedures. Blots were then blocked and immunolabeled overnight at 4° C. with primary antibodies, including anti-HIF-1α and anti-tubulin antibodies. Immunolabeling was detected by an enhanced chemiluminescence (ECL) kit (GE Healthcare, Buckinghamshire, UK) according to the manufacturer's instructions. For hypoxic conditions, cells were incubated at 5% CO2 with 1% O2 balanced with N2 in an anaerobic chamber (Forma)."}, "[6]": {"tested_on": "HepG2", "assay": "MTT cell proliferation assay, HepG2", "type": "cell-based", "details": "Homo sapiens; HepG2, cancer cells", "protocol": "as §1"}, "[7]": {"tested_on": "HT1080", "assay": "MTT cell proliferation assay, HT1080", "type": "cell-based", "details": "Homo sapiens, HT-1080; HT1080, cancer cells"}, "[8]": {"tested_on": "HUVECs", "assay": "Chemoinvasion assay (VEGF-induced)", "type": "cell-based, human", "details": "VEGF 30 ng/mL, serum-starved HUVECs", "protocol": "(§3) To examine the invasiveness of HUVECs in vitro, we used a Transwell chamber system with 8.0-μm pore polycarbonate filter inserts. Briefly, the lower side of the filter was coated with gelatin (10 μL, 1 mg/mL) and the upper side was coated with Matrigel (10 μL, 3 mg/mL). Test compounds were added to the lower chamber in the presence of VEGF (30 ng/mL), and HUVECs (7×10^5 cells) were placed in the upper chamber of the filter. The chamber was incubated at 37° C. for 18 h, and then the cells were fixed with 70% methanol and stained with hematoxylin and eosin. The invasiveness of cells was measured by counting the number of whole cells in the lower side of the filter using a microscope at 100× magnification, and cells were photographed at 100× magnification."}, "[9]": {"tested_on": "HeLa", "assay": "MTT cell proliferation assay, HeLa", "type": "cell-based", "details": "Homo sapiens, cancer cells"}, "[10]": {"tested_on": "CHANG", "assay": "MTT cell proliferation assay, CHANG", "type": "cell-based", "details": "normal cells"}, "[11]": {"tested_on": "HUVECs", "assay": "In vitro tumor cell-induced angiogenesis assay (combinated-chemoinvasion assay)", "type": "cell-based, human", "details": "HepG2 in lower chamber, without VEGF", "protocol": "To examine the invasive activity of […], a Transwell chamber system with 8.0-μm pore polycarbonate filter inserts was used. Briefly, the lower side of the filter was coated with gelatin (10 μL, 1 mg/mL) and the upper side was coated with Matrigel (10 μL, 3 mg/mL). Next, tumor cell HepG2 was added to the lower chamber. Test compounds were added to the lower chamber without VEGF and HUVECs (7×10^5 cells) were placed in the upper chamber of the filter. The chamber was incubated at 37° C. for 18 h, and then the cells were fixed with 70% methanol and stained with hematoxylin and eosin. Invasiveness was measured by counting the number of whole cells on the lower side of the filter using a microscope at 100× magnification, and cells were photographed at 100× magnification."}, "[12]": {"tested_on": "chick embryo chorioallantoic membrane (CAM)", "assay": "Chorioallantoic membrane (CAM) assay", "type": "in vivo, chicken", "protocol": "The CAM assay was performed as described previously. Fertilized chicken eggs were kept in a humidified incubator at 37° C. for 3 days. Approximately 2-3 mL of egg albumin was removed with a hypodermic needle, allowing the CAM and yolk sac to drop away from the shell membrane. […] After further incubation for 2 days, 2-3 mL of Intralipose (Greencross Co, Suwon, Korea) was injected beneath the CAM and the membrane was observed under a microscope. Retinoic acid (RA) was used as a positive control."}, "[13]": {"tested_on": "VEGF", "assay": "Measurement of VEGF by ELISA", "type": "cell-based, human", "details": "HepG2 cells", "protocol": "The VEGF concentration in media from voacangine-treated cells was determined using a VEGF Immunoassay kit (R&D Systems, Minneapolis, Minn.) according to the manufacturer's instructions. The results were expressed as concentration of VEGF relative to the total amount of VEGF from each well."}, "[14]": {"tested_on": "HUVECs", "assay": "Trypan blue cell viability", "details": "doses up to 20 μM for 3 days"}, "[15]": {"tested_on": "HUVECs", "assay": "Nicotine-induced endothelial cell invasion", "type": "cell-based, human", "details": "nicotine 10 nM", "protocol": "as §3, with “Serum-starved HUVECs were stimulated by nicotine (10 nM) in the presence or absence of voacangine. […] The basal level capillary tube formation (a) and invasiveness (b) of HUVECs that remained in serum-free media were normalized to 100%. To” for “To”, “Test compounds were added to the lower chamber in the presence of VEGF (30 ng/mL), and HUVECs (7×10^5 cells) were placed in the upper chamber of the filter.” left out"}}}
{"compound": "CC[C@H]1C[C@@H]2CN3CCc4c([nH]c5ccc(OC)cc45)[C@](C(=O)OC)(C2)C13", "note": "[voacangine, 12-methoxyibogamine-18-carboxylic acid methyl ester]", "values": [{"measurement": "cell growth", "setting": "[1]; 10 μM, 3 days, MTT", "result": "inhibited cell growth"}, {"measurement": "IC50", "setting": "[1]; Homo sapiens, HUVEC, HUVECs, normal cells", "result": 18, "unit": "µM"}, {"measurement": "growth inhibition on HUVECs versus other cell lines", "setting": "[1]; compared with other normal and cancer cell lines (Table 1)", "result": "greater growth inhibition effect on HUVECs than on other normal and cancer cell lines"}, {"measurement": "VEGF-induced tube formation", "setting": "[2]", "result": "inhibited VEGF-induced tube formation in a dose-dependent manner"}, {"measurement": "nicotine-induced angiogenesis (tube formation)", "setting": "[3]", "result": "inhibit nicotine-induced angiogenesis"}, {"measurement": "capsaicin contraction", "setting": "[4]", "result": "inhibit capsaicin contraction in a dose-dependent manner"}, {"measurement": "expression level of HIF-1α", "setting": "[5]", "result": "dose-dependently reduced"}, {"measurement": "synthesis of cyclin D1 and tubulin", "setting": "[5]; Western blot", "result": "without inhibiting the synthesis of other proteins"}, {"measurement": "IC50", "setting": "[6]", "result": 42, "unit": "µM"}, {"measurement": "IC50", "setting": "[7]", "result": 33, "unit": "µM"}, {"measurement": "VEGF-induced invasiveness of HUVECs", "setting": "[8]", "result": "inhibited the VEGF-induced enhanced invasiveness of HUVECs in a dose-dependent manner"}, {"measurement": "IC50", "setting": "[9]", "result": 23, "unit": "µM"}, {"measurement": "IC50", "setting": "[10]", "result": 26, "unit": "µM"}, {"measurement": "tumor cell-induced invasiveness of HUVECs by hypoxia", "setting": "[11]", "result": "dose-dependently inhibited"}, {"measurement": "capillary formation during CAM development", "setting": "[12]; 2 and 4 μg/egg, 2 days", "result": "dose-dependently inhibited capillary formation"}, {"measurement": "signs of thrombosis or hemorrhage in CAM", "setting": "[12]; 2 days treatment", "result": "no apparent signs of thrombosis or hemorrhage"}, {"measurement": "hypoxia-induced expression of VEGF", "setting": "[13]", "result": "inhibited the hypoxia-induced expression of VEGF"}, {"measurement": "cytotoxicity on HUVECs (trypan blue exclusion)", "setting": "[14]", "result": "no cytotoxicity"}, {"measurement": "nicotine-induced invasion of HUVECs", "setting": "[15]", "result": "inhibit nicotine-induced angiogenesis and invasion of HUVECs in a dose-dependent manner"}]}
{"compound": "CN1CCCC1c1cccnc1", "note": "(stereo not drawn) [nicotine, reference compound]", "values": [{"measurement": "increase of angiogenesis (tube formation) activity", "setting": "[3]; serum-starved HUVECs", "result": 2.5, "unit": "fold"}, {"measurement": "increase of cell invasion activity", "setting": "[15]; serum-starved HUVECs", "result": 2.0, "unit": "fold"}]}
